Test: Drug uptake in human skin dermal layer administered topically after 6 hrs by LC-MS/MS analysis
Type: ADME, tissue-based, Dermis
Details: topical_or_ocular
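Throughout, for logD: lipophilicity determined by HPLC.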

Row | SMILES | Drug uptake [µg]
1 | CC(=O)c1ccc(OCc2cc(C)ccn2)c(-c2ccc3c(c2)CCNCC3)c1 | 0.43
2 | COc1cccc(OCc2cc(C)ccn2)c1-c1ccc2c(c1)CCNCC2 | 0.38

Test: Apparent permeability of the compound after 3 hrs by PAMPA
Type: ADME
Details: not given

Row | SMILES | Papp at 3 h [×10⁻⁶ cm/s]
3 | COc1ccc(-c2nc(C)ccc2OCc2cc(C)ccn2)cc1 | 33
4 | Cc1ccnc(COc2ccc(C)nc2-c2ccc3c(c2)CCNCC3)c1 | 43.5

Test: physchem
Details: buffer, pH 7.4

Row | SMILES | logD
5 | COc1cccc(-c2cc(C(C)=O)ccc2OCc2ccccn2)c1 | 5.4
6 | COc1cccc(OCc2cnccn2)c1-c1ccc2c(c1)CCNCC2 | 2.2
7 | COc1ccc(-c2cc(C(C)=O)ccc2OCc2ncccn2)cc1 | 4.5
8 | CC(=O)c1ccc(OCc2ccccn2)c(-c2ccc(CCN)cc2)c1 | 2.1
9 | COc1ccc(-c2nc(C)ccc2OCc2ccccn2)cc1 | 5
10 | COc1ccc(-c2nc(C)ccc2OCc2ccc(C)cn2)cc1 | 5.5
11 | COc1ccc(-c2cc(C)ccc2OCc2ccccn2)cc1 | 6.8
12 | CC(=O)c1ccc(OCc2ccccn2)c(-c2ccc3c(c2)CNCC3)c1 | 2.2
13 | COc1ccc(-c2cc(F)ccc2OCc2ccccn2)cc1 | 6.4
14 | CC(=O)c1ccc(OCc2ccccn2)c(-c2ccc3c(c2)CCNCC3)c1 | 2.3
15 | COc1ccc(-c2cc(C(C)=O)ccc2OCc2ccncn2)cc1 | 4.5
16 | COc1ccc(OCc2cc(C)ccn2)c(-c2ccc3c(c2)CCNCC3)c1 | 3
17 | COc1ccc(-c2cc(OC)ccc2OCc2ccccn2)cc1 | 6
18 | CC(=O)c1ccc(OCc2ccccn2)c(-c2ccc3c(c2)CCNC3)c1 | 2.1
19 | COc1ccc(-c2nc(C)ccc2OCc2cc(C)ccn2)cc1 | 5.4
20 | CCc1ccnc(COc2ccc(C(C)=O)cc2-c2ccc3c(c2)CCNCC3)c1 | 2.8
21 | COc1ccc(-c2cc(C(C)=O)ccc2OCc2ccccn2)cc1 | 5.3
22 | CNC(=O)c1ccc(OCc2cc(C)ccn2)c(-c2ccc3c(c2)CCNCC3)c1 | 1.9
23 | COc1ccc(-c2ccc(OC)cc2OCc2ccccn2)cc1 | 6.2
24 | COc1ccc(-c2ccccc2OCc2ccccn2)cc1 | 6.2
25 | CCOc1ccnc(COc2ccc(C(C)=O)cc2-c2ccc3c(c2)CCNCC3)c1 | 2.7
26 | COc1ccc(-c2nc(C)ccc2OCc2cccc(C)n2)cc1 | 5.5

Row | SMILES | logD
27 | Cc1ccc(-c2ncccc2OCc2ccccn2)cc1 | 4.9
28 | CC(=O)c1ccc(OCc2ccccn2)c(-c2ccc(CN)cc2)c1 | 1.9
29 | CC(=O)c1ccc(OCc2cc(C)ccn2)c(-c2ccc3c(c2)CCNCC3)c1 | 2.5
30 | CC(=O)c1ccc(OCc2ccccn2)c(-c2cccc(C)c2)c1 | 6
31 | COc1ccc(-c2ccc(F)cc2OCc2ccccn2)cc1 | 6.6
32 | COc1ccc(-c2cc(C(C)=O)ccc2OCc2cnccn2)cc1 | 4.7
33 | CC(=O)c1ccc(OCc2ccccn2)c(-c2ccc(C)cc2)c1 | 6.1
34 | COc1ccc(-c2cc(C(C)=O)ccc2OCc2cccnn2)cc1 | 4.1
35 | COc1ccc(-c2nc(C)ccc2OCc2ncccc2C)cc1 | 5.3
36 | COc1ccc(-c2ccc3c(c2)CCNCC3)c(OCc2cc(C)ccn2)c1 | 3
37 | CC(=O)c1ccc(OCc2ccccn2)c(-c2ccc3c(c2)CNCCC3)c1 | 2.3
38 | CC(=O)c1ccc(OCc2ccccn2)c(-c2ccc3c(c2)CNC3)c1 | 2.1
39 | COc1ccc(-c2c(C)cccc2OCc2ccccn2)cc1 | 6.7
40 | CC(=O)c1ccc(OCc2ccccn2)c(-c2ccc(F)cc2)c1 | 5.6
41 | COc1cccc(OCc2cc(C)ccn2)c1-c1ccc2c(c1)CCNCC2 | 3.1
42 | COc1ccc(-c2c(F)cccc2OCc2ccccn2)cc1 | 6.2
43 | COc1ccc(-c2c(OC)cccc2OCc2ccccn2)cc1 | 5.8
44 | CC(=O)c1ccc(OCc2ccccn2)c(-c2ccc3c(c2)CCCNC3)c1 | 2.3
45 | Cc1ccnc(COc2ccc(C#N)cc2-c2ccc3c(c2)CCNCC3)c1 | 2.8
46 | CC(=O)c1ccc(OCc2ccccn2)c(-c2ccccc2)c1 | 5
47 | Cc1ccc(-c2ccccc2OCc2ccccn2)cc1 | 7

Test: Drug uptake in human skin epidermal layer administered topically after 6 hrs by LC-MS/MS analysis
Type: ADME, tissue-based, Skin epidermis
Details: topical_or_ocular

Row | SMILES | Drug uptake [µg]
48 | CC(=O)c1ccc(OCc2cc(C)ccn2)c(-c2ccc3c(c2)CCNCC3)c1 | 5.52
49 | COc1cccc(OCc2cc(C)ccn2)c1-c1ccc2c(c1)CCNCC2 | 9.34

From ChEMBL document CHEMBL4265956, “Discovery of potent and selective Spleen Tyrosine Kinase inhibitors for the topical treatment of inflammatory skin disease” (Bioorg Med Chem Lett, 2018)
